# From PubChem BioAssay AID328 (DTP/NCI, 2004)
# Several values for one entry are separate records, joined by “and”; a condition that tells them apart may be missing. Equal entries are not always repeated. Toxic doses and inconclusive results are not listed.
# System: BDF1 mice, P388 leukemia ip, median survival T/C
# Assay: NCI In Vivo Anticancer Drug Screen. Data for tumor model P388 Leukemia (intraperitoneal) in B6D2F1 (BDF1) mice
# Conditions: endpoint: median survival time, higher = longer survival
# In short: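 Each value expresses how treatment altered survival: treated-mouse outcome over vehicle-mouse outcome, both groups bearing the transplanted tumour.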
# [1] = dose: 25.0 mg/kg/injection, schedule: Q04DX003 (ip), vehicle: saline with Tween-80
# [2] = dose: 100.0 mg/kg/injection, schedule: Q04DX003 (ip), vehicle: saline with Tween-80
# [3] = dose: 200.0 mg/kg/injection, schedule: Q04DX003 (ip), vehicle: saline with Tween-80
# [4] = dose: 400.0 mg/kg/injection, schedule: Q04DX003 (ip), vehicle: saline with Tween-80
# [5] = dose: 50.0 mg/kg/injection, schedule: Q04DX003 (ip), vehicle: saline with Tween-80
# [6] = dose: 100.0 mg/kg/injection, schedule: Q01DX009 (ip), vehicle: gum acacia
# [7] = dose: 100.0 mg/kg/injection, schedule: Q04DX003 (ip), vehicle: gum acacia
# [8] = dose: 50.0 mg/kg/injection, schedule: Q01DX009 (ip), vehicle: saline with Tween-80
# [9] = dose: 100.0 mg/kg/injection, schedule: Q01DX009 (ip), vehicle: saline with Tween-80
# [10] = dose: 200.0 mg/kg/injection, schedule: Q01DX009 (ip), vehicle: saline with Tween-80
# [11] = dose: 200.0 mg/kg/injection, schedule: Q01DX009 (ip), vehicle: Klucel (hydroxypropylcellulose) (HPC)
# [12] = dose: 400.0 mg/kg/injection, schedule: Q01DX009 (ip), vehicle: Klucel (hydroxypropylcellulose) (HPC)
# [13] = dose: 12.5 mg/kg/injection, schedule: Q04DX003 (ip), vehicle: saline with Tween-80
smiles,measurement,setting,value
COCCCNP(=S)(N1CC1)N1CC1,T/C,"dose: 16.5 mg/kg/injection, schedule: Q04DX003 (ip), vehicle: saline with Tween-80",163 % of control and 195 % of control
same,T/C,[1],181 % of control and 218 % of control
same,T/C,"dose: 37.5 mg/kg/injection, schedule: Q04DX003 (ip), vehicle: saline with Tween-80",104 % of control and 109 % of control
CCOC(=O)C(C)(C)CN(CC(C)(C)C(=O)OCC)c1ccccc1,T/C,[2],115 % of control
same,T/C,[3],115 % of control
same,T/C,[4],120 % of control
C=CCNC(=S)Nc1ccc(N(C)C)cc1,T/C,[5],100 % of control
same,T/C,[2],95 % of control
same,T/C,[3],109 % of control
COc1cc2cnc3c4cc5c(cc4ccc3c2cc1OC)OCO5,T/C,"dose: 20.0 mg/kg/injection, schedule: Q01DX009 (ip), vehicle: saline with Tween-80",95 % of control
same,T/C,"dose: 40.0 mg/kg/injection, schedule: Q01DX009 (ip), vehicle: saline with Tween-80",105 % of control
same,T/C,"dose: 80.0 mg/kg/injection, schedule: Q01DX009 (ip), vehicle: saline with Tween-80",105 % of control
same,T/C,"dose: 120.0 mg/kg/injection, schedule: Q01DX009 (ip), vehicle: saline with Tween-80",95 % of control
same,T/C,"dose: 240.0 mg/kg/injection, schedule: Q01DX009 (ip), vehicle: saline with Tween-80",110 % of control
CCC([NH-])=O.CCC([NH-])=O.[Pt+2],T/C,"dose: 100.0 mg/kg/injection, schedule: Q04DX003 (ip), vehicle: water",101 % of control
same,T/C,"dose: 200.0 mg/kg/injection, schedule: Q04DX003 (ip), vehicle: water",101 % of control
same,T/C,"dose: 400.0 mg/kg/injection, schedule: Q04DX003 (ip), vehicle: water",101 % of control
NC1CC2C=CCC(C1)C2 (stereo unspecified),T/C,"dose: 37.5 mg/kg/injection, schedule: Q01DX001 (ip), vehicle: saline",95 % of control
same,T/C,"dose: 75.0 mg/kg/injection, schedule: Q01DX001 (ip), vehicle: saline",100 % of control
same,T/C,"dose: 150.0 mg/kg/injection, schedule: Q01DX001 (ip), vehicle: saline",100 % of control
COc1ccc(C(CCl)(CCl)c2ccc(OC)cc2)cc1,T/C,[6],116 % of control
same,T/C,[7],87 % of control
same,T/C,"dose: 200.0 mg/kg/injection, schedule: Q01DX009 (ip), vehicle: gum acacia",112 % of control
same,T/C,"dose: 200.0 mg/kg/injection, schedule: Q04DX003 (ip), vehicle: gum acacia",104 % of control
same,T/C,"dose: 400.0 mg/kg/injection, schedule: Q01DX009 (ip), vehicle: gum acacia",104 % of control
same,T/C,"dose: 400.0 mg/kg/injection, schedule: Q04DX003 (ip), vehicle: gum acacia",95 % of control
O=C(Nc1ccc(Cl)c(Cl)c1)ON1CCCCC1,T/C,[8],100 % of control
same,T/C,[9],100 % of control
same,T/C,[10],106 % of control
CCCCOC(=O)c1ccc(NC(=O)NCCC)cc1,T/C,[2],104 % of control
same,T/C,[3],100 % of control
same,T/C,[4],109 % of control
CC(=O)C(=O)NC1/C=C(C)\C=C/C(O)C/C=C(C)\C=C/C(O)CC2OC(=O)C1(C)C(=O)C2C (stereo unspecified),T/C,"dose: 50.0 mg/kg/injection, schedule: Q01DX009 (ip), vehicle: Klucel (hydroxypropylcellulose) (HPC)",109 % of control and 122 % of control
same,T/C,[11],153 % of control and 163 % of control
same,T/C,[12],171 % of control
CCOC(=O)C(Cc1ccc(N(CCCl)CCCl)cc1)NC(=O)C(Cc1ccccc1)NC=O (stereo unspecified),T/C,[13],118 % of control
same,T/C,[8],168 % of control
same,T/C,[5],172 % of control
same,T/C,[9],90 % of control
same,T/C,"dose: 132.0 mg/kg/injection, schedule: Q04DX003 (ip), vehicle: saline with Tween-80",227 % of control
same,T/C,"dose: 133.0 mg/kg/injection, schedule: Q04DX003 (ip), vehicle: saline with Tween-80",200 % of control
same,T/C,[3],254 % of control and 215 % of control
Cc1ccccc1CC(N)C(=O)O (stereo unspecified),T/C,[8],92 % of control
same,T/C,[9],92 % of control
same,T/C,[10],90 % of control
COC(=O)C1C2CCc3cc(OC)ccc3C2CCC1(C)C(=O)O (stereo unspecified),T/C,"dose: 100.0 mg/kg/injection, schedule: Q01DX001 (ip), vehicle: saline sonified",100 % of control
same,T/C,"dose: 200.0 mg/kg/injection, schedule: Q01DX001 (ip), vehicle: saline sonified",104 % of control
same,T/C,"dose: 400.0 mg/kg/injection, schedule: Q01DX001 (ip), vehicle: saline sonified",100 % of control
NC(=O)C1(NC2CCCCC2)CCN(Cc2ccccc2)CC1,T/C,"dose: 50.0 mg/kg/injection, schedule: Q01DX009 (ip), vehicle: gum acacia",107 % of control
same,T/C,"dose: 50.0 mg/kg/injection, schedule: Q04DX003 (ip), vehicle: gum acacia",100 % of control
same,T/C,[6],107 % of control
same,T/C,[7],91 % of control
COc1ccc2c(c1)CCC1C2=CC(=O)/C1=C\[O-].COc1ccc2c(c1)CCC1C2=CC(=O)/C1=C\[O-].[Cu+2] (stereo unspecified),T/C,[13],113 % of control
same,T/C,[1],109 % of control
CCOC(=O)C1=C(N)CC(c2ccc(C#N)cc2)NC1c1cccc(OC)c1O (stereo unspecified),T/C,"dose: 100.0 mg/kg/injection, schedule: Q01DX001 (ip), vehicle: saline with Tween-80",105 % of control
same,T/C,"dose: 200.0 mg/kg/injection, schedule: Q01DX001 (ip), vehicle: saline with Tween-80",111 % of control
COc1c2c([n+](C)c3c(OC)cccc13)OC(C(C)C)C2 (stereo unspecified),T/C,"dose: 0.03 mg/kg/injection, schedule: Q01DX009 (ip), vehicle: saline",109 % of control
same,T/C,"dose: 0.06 mg/kg/injection, schedule: Q01DX009 (ip), vehicle: saline",104 % of control
same,T/C,"dose: 0.12 mg/kg/injection, schedule: Q01DX009 (ip), vehicle: saline",109 % of control
same,T/C,"dose: 0.18 mg/kg/injection, schedule: Q04DX003 (ip), vehicle: saline",100 % of control
same,T/C,"dose: 0.25 mg/kg/injection, schedule: Q01DX009 (ip), vehicle: Klucel (hydroxypropylcellulose) (HPC)",104 % of control
same,T/C,"dose: 0.25 mg/kg/injection, schedule: Q01DX009 (ip), vehicle: saline",104 % of control and 120 % of control
same,T/C,"dose: 0.37 mg/kg/injection, schedule: Q04DX003 (ip), vehicle: saline",118 % of control
same,T/C,"dose: 0.5 mg/kg/injection, schedule: Q01DX009 (ip), vehicle: Klucel (hydroxypropylcellulose) (HPC)",104 % of control
same,T/C,"dose: 0.5 mg/kg/injection, schedule: Q01DX009 (ip), vehicle: saline",112 % of control
same,T/C,"dose: 0.75 mg/kg/injection, schedule: Q04DX003 (ip), vehicle: saline",104 % of control
same,T/C,"dose: 1.0 mg/kg/injection, schedule: Q01DX009 (ip), vehicle: Klucel (hydroxypropylcellulose) (HPC)",118 % of control
same,T/C,"dose: 1.1 mg/kg/injection, schedule: Q04DX003 (ip), vehicle: saline",90 % of control
same,T/C,"dose: 1.7 mg/kg/injection, schedule: Q04DX003 (ip), vehicle: saline",100 % of control
same,T/C,"dose: 2.5 mg/kg/injection, schedule: Q04DX003 (ip), vehicle: saline",90 % of control
same,T/C,"dose: 3.6 mg/kg/injection, schedule: Q04DX003 (ip), vehicle: saline",86 % of control
COC(=O)C(C)C(=O)OC,T/C,"dose: 100.0 mg/kg/injection, schedule: Q01DX001 (ip), vehicle: saline",100 % of control
same,T/C,"dose: 100.0 mg/kg/injection, schedule: Q01DX009 (ip), vehicle: saline",90 % of control
same,T/C,"dose: 200.0 mg/kg/injection, schedule: Q01DX001 (ip), vehicle: saline",100 % of control
same,T/C,"dose: 200.0 mg/kg/injection, schedule: Q01DX009 (ip), vehicle: saline",100 % of control
same,T/C,"dose: 400.0 mg/kg/injection, schedule: Q01DX001 (ip), vehicle: saline",113 % of control
same,T/C,"dose: 400.0 mg/kg/injection, schedule: Q01DX009 (ip), vehicle: saline",109 % of control
[NH-]C(CC(N)=O)C(=O)O.[NH-]C(CC(N)=O)C(=O)O.[Ni+2] (stereo unspecified),T/C,"dose: 3.12 mg/kg/injection, schedule: Q01DX009 (ip), vehicle: water",88 % of control
same,T/C,"dose: 6.25 mg/kg/injection, schedule: Q01DX009 (ip), vehicle: water",100 % of control
same,T/C,"dose: 12.5 mg/kg/injection, schedule: Q01DX009 (ip), vehicle: water",94 % of control
CC1(CCBr)NC(=O)NC1=O (stereo unspecified),T/C,"dose: 100.0 mg/kg/injection, schedule: Q01DX009 (ip), vehicle: Klucel (hydroxypropylcellulose) (HPC)",110 % of control
same,T/C,"dose: 100.0 mg/kg/injection, schedule: Q04DX003 (ip), vehicle: Klucel (hydroxypropylcellulose) (HPC)",100 % of control
same,T/C,[11],105 % of control
same,T/C,"dose: 200.0 mg/kg/injection, schedule: Q04DX003 (ip), vehicle: Klucel (hydroxypropylcellulose) (HPC)",115 % of control
same,T/C,[12],105 % of control
same,T/C,"dose: 400.0 mg/kg/injection, schedule: Q04DX003 (ip), vehicle: Klucel (hydroxypropylcellulose) (HPC)",100 % of control
